Source: patent publication US9610263B2, “Method of modulating membrane potential of a cell” (VERSITECH LIMITED, priority 2007, dated 2017)
“Also recorded” adds a separate entry of the source.

Tests used:
[1] = Membrane potential of valinomycin-polarized liposomes (safranin O); assay type: biochemical; conditions: KCl-loaded EYPC-liposomes in KCl/Na2SO4; external addition alone
From the text: The ability of Example 2 to modulate membrane potentials in polarized liposomes was investigated. […] This depolarization process induced by Example 2 may be attributed to the formation of chloride channels by Example 2 that mediate chloride ions flow out of the polarized liposomes to balance the electrostatic potential established by valinomycin.

[2] = system: Madin-Darby canine kidney (MDCK) cells; experiment: Membrane potential of living cells with bis-oxonol (DiBAC4(3)); assay type: cell-based
From the text: To determine the potential of Example 2 for application in biological and medicinal science, Example 2 was investigated for incorporating into the plasma membranes of living cells and, thereby, modulating their membrane potentials by increasing chloride permeability of the cell membranes. A potential-sensitive dye his-oxonal was used to measure the relative changes in membrane potential of the Madin-Darby canine kidney (MDCK) cells, a model for the renal distal tubule and collecting duct that secrete chloride ions. An increase in fluorescence of bis-oxonal indicated cell depolarization while a decrease indicated hyperpolarization. […] This depolarization effect could be ascribed to that the chloride equilibrium potential (ECl) was higher than the resting membrane potential in MDCK cells. Thus, the opening of chloride channels shifted the membrane potential towards the ECl.
In summary, FIG. 14A-E show the effects of adding different substances, including Example 2, on the membrane potential of Madin-Darby canine kidney (MDCK) cells. Membrane potentials of MDCK cells were monitored by the changes of emission intensity of the potential-sensitive dye bis-oxonol (DiBAC4(3)). The increase in the fluorescence intensity indicates depolarization. […] Each point in FIG. 14A-E represents the mean±s.e. (n=20-80 cells in 4-6 experiments).

[3] = system: mouse thoracic aortic rings; experiment: Vasorelaxation of aortic rings preconstricted by high-K solution (organ bath); conditions: aortic rings preconstricted by high-K (60 mM K+) solution, n=5, read-out: half-maximal relaxation value IC50
From the text: Example 52 was for investigating whether Example 2 could promote vasorelaxation during vasoconstriction induced by depolarization. Mouse thoracic aortic rings was mounted in an organ bath apparatus and measured their muscular activity.

melting point	Compound	other results
137 to 139 °C	CC(C)CNC(=O)[C@H](CC(C)C)OC(=O)c1cccc(C(=O)O[C@@H](CC(C)C)C(=O)NCC(C)C)c1 [Example 9]	–
240 to 242 °C	CC(C)CNC(=O)[C@H](CC(C)C)NC(=O)c1cccc(C(=O)N[C@@H](CC(C)C)C(=O)NCC(C)C)c1 [Example 8]	–
174 to 176 °C	CC(C)CNC(=O)[C@@H](CO)ONC(=O)c1cccc(C(=O)NO[C@H](CO)C(=O)NCC(C)C)c1 [Example 36]	–
145 to 148 °C	CC(C)CNC(=O)[C@@H](Cc1ccccc1)ONC(=O)c1cccc(C(=O)NO[C@H](Cc2ccccc2)C(=O)NCC(C)C)c1 [Example 37]	–

Second part, the compound before the results:

Compound	melting point	other results
CC(C)C[C@@H](ONC(=O)c1cccc(C(=O)NO[C@H](CC(C)C)C(=O)OC(C)(C)C)c1)C(=O)OC(C)(C)C [Example 1]	57 to 59 °C	–
CCCCCCCCCCCCCCCCCCNC(=O)[C@@H](CC(C)C)ONC(=O)c1cccc(C(=O)NO[C@H](CC(C)C)C(=O)NCCCCCCCCCCCCCCCCCC)c1 [Example 5]	88 to 90 °C	–
CC(C)[C@@H]1NC(=O)[C@H](C)OC(=O)[C@@H](C(C)C)NC(=O)[C@@H](C(C)C)OC(=O)[C@H](C(C)C)NC(=O)[C@H](C)OC(=O)[C@@H](C(C)C)NC(=O)[C@@H](C(C)C)OC(=O)[C@H](C(C)C)NC(=O)[C@H](C)OC(=O)[C@@H](C(C)C)NC(=O)[C@@H](C(C)C)OC1=O [valinomycin]	–	membrane potential of liposomes [1]: polarized the liposome
O=C(O)c1ccccc1Nc1ccccc1 [DPC, diphenylamine-2-carboxylate]	–	membrane potential (bis-oxonol fluorescence) ([2]; 1 mM added alone): hyperpolarization of the membrane potential; depolarization induced by low-chloride extracellular solution ([2]; 60 mM Cl- Ringer's solution in presence of 1 mM blocker): entirely inhibited the depolarization effect; also recorded: did not result in depolarization
CC(C)CNC(=O)[C@@H](CC(C)C)ONC(=O)c1cccc(C(=O)NO[C@H](CC(C)C)C(=O)NCC(C)C)n1 [Example 7]	175 to 177 °C	–
CC(C)CNC(=O)[C@@H](CC(C)C)ONC(=O)c1cccc(C(=O)NO[C@H](CC(C)C)C(=O)NCC(C)C)c1 [Example 2]	–	IC50 [3]: 8.42 ± 0.18 µM
CC(C)CNC(=O)[C@@H](CC(C)C)ONC(=O)c1ccccc1 [Example 6]	130 to 132 °C	–
